Assay results: patent EP1021178B1, “SELENOPHENE ANTI-TUMOR AGENTS” (Purdue Research Foundation, priority 1996, dated 1997)

Legend:
Assay in all cases: NCI human tumor cell panel
[1] = tested on: SNB-19; details: for CC50: SNB-19, read-out: Log10 LC50 (converted)
[2] = tested on: HCT-116; assay type: cell-based; details: HCT-116, read-out: Log10 LC50 (converted)
Description: (§1) Considering the diversity of tumors in terms of cell type, morphology, growth rate and other cellular characteristics, the U.S. National Cancer Institute (NCI) has developed a "disease-oriented" approach to antitumor activity screening (M.R. Boyd, in "Principle of Practice of Oncology" J.T. Devita, S. Hellman, S.A. Rosenberg (Eds.) Vol. 3, PPO Update, No. 10, 1989). This in vitro prescreening system is based on the measurement of antitumor cytotoxicity against human tumor cell line panels consisting of approximately 60 cell lines of major human tumors (including leukemia and slower growing tumor cells such as lung, colon, breast, skin, kidney, etc.). The most important advantage of the new in vitro screening panels is the opportunity to identify compounds that are selectively more cytotoxic to cells of slowly growing solid tumors than to rapidly growing leukemia cells.
(§2) The cytotoxic activity of the present selenophene compounds have been measured utilizing two different assays or screens. The first screen measures the cytotoxicity against a panel of sixty different human tumor cell lines. This assay provides data regarding the general cytotoxicity of an individual compound. In particular this type of assay is useful in identifying compounds which have enhanced cytotoxic activity against slow growing tumors as compared to faster growing tumor cells such as leukemia tumor cell lines. The identification of such compounds is critical since previously identified antitumor agents have low cytotoxic activity against slower growing tumors. […] The specificity of a cytotoxic compound for tumor cell lines relative to normal cells is an important characteristic of an effective antitumor agent.
(§3) Antitumor cytotoxicity data generated from the National Cancer Institute human tumor cell panels can also be expressed in a graphic pattern (mean graph) to display differential cell growth inhibition (K.D. Paull, R.H. Shoemaker, L. Hodes, A. Monks, D.A. Scudiero, L. Rubinstein, J. Plowman and M.R. Boyd, J. Nail. Cancer Inst., 81, 1088, 1989.) In the mean graph, the arithmetic mean of the logarithm of the GI50 (50% growth inhibition), TGI (total growth inhibition) or LC50 (50% lethal concentration) values is used as an anchor point. […] The length of a bar is indicative of differential cytotoxicity against a specific type of tumor cells or tumor panels.
(§4) The antitumor cytotoxicity of the selenophene compounds tested in those in vitro assays was measured by a microculture assay using either a 3-(4,5-dimethylthiazol-2-yl)-2,5-diphenyltetrazolium bromide (MTT) or sulforhodamine B (SRB) based assay. [M.R. Boyd in "Principles and Practices of Oncology," V.T. DeVita, Jr.]. The experiments were conducted at Purdue University in 96-well microtiter plates and the cytotoxic effects of the selenophene compounds on those cells were measured by cell count using a Coulter Z.F. counter (Hialeah, FL). The results are expressed as GI50, the concentration of drug at which cell numbers are reduced to 50% of control cell culture [T.C.K. Chan, C.J. Chang, N.M. Koonchanok and R.L. Geahlen, Biochem. Biophys. Res. Commun., 193, 1152, (1993); S. Hellman and S.A. Rosenberg (Eds.), Vol. 3, PPO Updates, Number 10, (1989).]
(§5) This in vitro microculture assay has an advantage over in vivo assays in that results are obtained within a week as opposed to several months. The MTT assay is based on the production of a dark blue formazan product by dehydrogenase in the mitochondria of live tumor cells after exposure to drug for 6 days [M.C. Alley, D.A. Scudiero, A. Monks, M.L. Hursey, M.J. Czerwinski, D.L. Fine, B.J. Abbott, J.G. Mayo, R.H. Shoemaker and M.R. Boyd, Cancer Res., 48, 589, 1988]. Thus, only live cells are stained and can be measured at 570 nm. […]

[3] = tested on: A498; assay type: cell-based; details: A498, read-out: Log10 LC50 (converted)
Description: as §1, §2, §3, §4, §5

[4] = tested on: SK-MEL-2; assay type: cell-based; details: SK-MEL-2, read-out: Log10 LC50 (converted)
Description: as §1, §2, §3, §4, §5

[5] = tested on: RPMI-8226; assay type: cell-based; details: RPMI-8226, read-out: Log10 LC50 (converted)
Description: as §1, §2, §3, §4, §5

[6] = tested on: NCI-H322M; assay type: cell-based; details: read-out: Log10 LC50 (converted)
Description: as §1, §2, §3, §4, §5

[7] = tested on: HCT-15; assay type: cell-based; details: HCT-15, read-out: Log10 LC50 (converted)
Description: as §1, §2, §3, §4, §5

[8] = tested on: OVCAR-5; assay type: cell-based; details: OVCAR-5, read-out: Log10 LC50 (converted)
Description: as §1, §2, §3, §4, §5

[9] = tested on: PC-3; assay type: cell-based; details: PC-3, read-out: Log10 LC50 (converted)
Description: as §1, §2, §3, §4, §5

[10] = tested on: HS 578T; assay type: cell-based; details: read-out: Log10 LC50 (converted)
Description: as §1, §2, §3, §4, §5

[11] = tested on: 786-0; assay type: cell-based; details: 786-0, read-out: Log10 LC50 (converted)
Description: as §1, §2, §3, §4, §5

[12] = tested on: SR; assay type: cell-based; details: read-out: Log10 LC50 (converted)
Description: as §1, §2, §3, §4, §5

[13] = tested on: SF-539; assay type: cell-based; details: SF-539, read-out: Log10 LC50 (converted)
Description: as §1, §2, §3, §4, §5

[14] = tested on: A549/ATCC; assay type: cell-based; details: A549, read-out: Log10 LC50 (converted)
Description: as §1, §2, §3, §4, §5

[15] = tested on: SN12C; assay type: cell-based; details: read-out: Log10 LC50 (converted)
Description: as §1, §2, §3, §4, §5

[16] = tested on: OVCAR-4; assay type: cell-based; details: OVCAR-4, read-out: Log10 LC50 (converted)
Description: as §1, §2, §3, §4, §5

[17] = tested on: MOLT-4; assay type: cell-based; details: MOLT-4, read-out: Log10 LC50 (converted)
Description: as §1, §2, §3, §4, §5

[18] = tested on: HCC-2998; assay type: cell-based; details: HCC 2998, read-out: Log10 LC50 (converted)
Description: as §1, §2, §3, §4, §5

[19] = tested on: SW-620; assay type: cell-based; details: SW-620, read-out: Log10 LC50 (converted)
Description: as §1, §2, §3, §4, §5

[20] = tested on: DU-145; assay type: cell-based; details: DU-145, read-out: Log10 LC50 (converted)
Description: as §1, §2, §3, §4, §5

[21] = tested on: IGROV1; assay type: cell-based; details: IGROV-1, read-out: Log10 LC50 (converted)
Description: as §1, §2, §3, §4, §5

Row | SMILES | CC50 [1] [µM] | CC50 [2] [µM] | CC50 [3] [µM] | CC50 [4] [µM] | CC50 [5] [µM] | LC50 (concentration killing 50% of cells) [6] [µM] | CC50 [7] [µM] | CC50 [8] [µM] | CC50 [9] [µM] | CC50 [10] [µM] | CC50 [11] [µM] | CC50 [12] [µM] | CC50 [13] [µM] | CC50 [14] [µM] | CC50 [15] [µM] | CC50 [16] [µM] | CC50 [17] [µM] | CC50 [18] [µM] | CC50 [19] [µM] | CC50 [20] [µM] | further results
1 | O=Cc1ccc(-c2ccc(-c3ccc(C=O)[se]3)s2)s1 | > 100 | > 100 | 0.331 | > 100 | > 100 | > 100 | > 100 | > 100 | > 100 | > 100 | 64.6 | > 100 | > 100 | > 100 | > 100 | > 100 | > 100 | > 100 | > 100 | > 100 | IC (TGI) ([1]; SNB-19, read-out: Log10 TGI): > 100 µM; CC50 [21]: 91.2 µM
2 | OCc1ccc(-c2ccc(-c3ccc(CO)[se]3)s2)s1 | > 100 | 81.3 | 0.0724 | > 100 | > 100 | > 100 | > 100 | > 100 | > 100 | > 100 | 57.5 | > 100 | 83.2 | > 100 | > 100 | 81.3 | > 100 | 44.7 | > 100 | > 100 | CC50 [21]: 28.2 µM
3 | OCc1ccc(-c2ccc(-c3ccc[se]3)s2)[se]1 | > 100 | > 100 | 0.302 | > 100 | > 100 | > 100 | > 100 | – | > 100 | > 100 | > 100 | > 100 | > 100 | > 100 | > 100 | > 100 | > 100 | > 100 | > 100 | > 100 | CC50 [21]: 51.3 µM
4 | OCc1ccc(-c2ccc(-c3ccc[se]3)[se]2)[se]1 | > 100 | 32.4 | 0.692 | 69.2 | > 100 | 47.9 | > 100 | > 100 | 36.3 | – | 17.4 | > 100 | 51.3 | 46.8 | – | 47.9 | > 100 | 53.7 | 35.5 | 46.8 | CC50 [21]: 12.3 µM
5 | OCc1ccc(-c2ccc(-c3ccc(CO)[se]3)[se]2)[se]1 | 91.2 | > 100 | 7.24 | 69.2 | > 100 | 52.5 | 55 | > 100 | 35.5 | 46.8 | 70.8 | > 100 | 95.5 | 53.7 | > 100 | 49 | > 100 | 12.6 | 9.55 | 46.8 | CC50 [21]: 30.2 µM
6 | OCc1ccc(-c2ccc(-c3ccc(CO)s3)[se]2)s1 | > 100 | > 100 | 0.158 | > 100 | > 100 | > 100 | > 100 | > 100 | > 100 | > 100 | > 100 | > 100 | > 100 | > 100 | > 100 | > 100 | > 100 | > 100 | > 100 | > 100 | –
7 | OCc1ccc(-c2ccc(-c3ccc(CO)[se]3)s2)[se]1 | > 100 | > 100 | 0.0955 | > 100 | > 100 | > 100 | > 100 | 0.776 | > 100 | > 100 | > 100 | > 100 | > 100 | > 100 | > 100 | > 100 | > 100 | 2.45 | > 100 | > 100 | CC50 [21]: > 100 µM
8 | OCc1ccc(-c2ccc(-c3cccs3)[se]2)s1 | > 100 | 2.95 | 0.0661 | > 100 | > 100 | > 100 | > 100 | > 100 | > 100 | > 100 | > 100 | > 100 | > 100 | > 100 | > 100 | > 100 | > 100 | 9.77 | > 100 | > 100 | CC50 [21]: 16.2 µM
9 | O=Cc1ccc(-c2ccc(-c3ccc(C=O)[se]3)s2)[se]1 | > 100 | > 100 | – | > 100 | > 100 | > 100 | > 100 | 3.55 | > 100 | > 100 | > 100 | > 100 | > 100 | > 100 | > 100 | > 100 | > 100 | > 100 | > 100 | > 100 | CC50 [21]: > 100 µM
10 | O=Cc1ccc(-c2ccc(-c3ccc[se]3)[se]2)[se]1 | 87.1 | 38.9 | 6.31 | > 100 | > 100 | 60.3 | 79.4 | 75.9 | 87.1 | 53.7 | 43.7 | – | 63.1 | 51.3 | 50.1 | 60.3 | > 100 | 38.9 | – | 51.3 | CC50 [21]: 39.8 µM
